# Calls of active or inactive are those of the source.
# Tests used:
# [1] = target: DNA dC->dU-editing enzyme APOBEC-3G (Homo sapiens, UniProt Q9HC16); type: functional;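 note: Dose-response counterscreen measuring inhibition of APOBEC3G DNA deaminase activity, run while confirming APOBEC3A inhibitors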
# [2] = target: DNA dC->dU-editing enzyme APOBEC-3A (Homo sapiens, UniProt P31941); test: Dose Response confirmation of small molecule APOBEC3A DNA Deaminase Inhibitors via a fluorescence-based single-stranded DNA deaminase assay. [Related pubchem assays (depositor defined):AID493011, AID493024]; type: functional
# Major prion protein = Major prion protein (Homo sapiens, UniProt P04156); type: functional, cell-based
# [3] = ZM109 Env clade C HIV-1 fusion inhibitors, dose response, HeLa effector, CEM target cells, luciferase, cherry-pick (AID 652058); type: functional, cell-based
# [4] = inhibitors of clade B AD8 Env fusion, dose response, cell-based, cherry-pick (AID 652062); type: functional;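 note: luciferase signal from cell-cell fusion driven by HIV-1 clade B AD8 Env; potency is for inhibitors of fusion seen as a drop in luminescence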
# Protein RecA = target: T1, Protein RecA (Mycobacterium tuberculosis, UniProt P9WHJ3); test: Fluorescence Cell-Free Homogeneous Dose Retest to Identify Inhibitors of RecA-Intein Splicing Activity. [Related pubchem assays (depositor defined):AID2097, AID2223, AID489010, AID492950]; type: functional
# T1 sequence (P9WHJ3 whole entry): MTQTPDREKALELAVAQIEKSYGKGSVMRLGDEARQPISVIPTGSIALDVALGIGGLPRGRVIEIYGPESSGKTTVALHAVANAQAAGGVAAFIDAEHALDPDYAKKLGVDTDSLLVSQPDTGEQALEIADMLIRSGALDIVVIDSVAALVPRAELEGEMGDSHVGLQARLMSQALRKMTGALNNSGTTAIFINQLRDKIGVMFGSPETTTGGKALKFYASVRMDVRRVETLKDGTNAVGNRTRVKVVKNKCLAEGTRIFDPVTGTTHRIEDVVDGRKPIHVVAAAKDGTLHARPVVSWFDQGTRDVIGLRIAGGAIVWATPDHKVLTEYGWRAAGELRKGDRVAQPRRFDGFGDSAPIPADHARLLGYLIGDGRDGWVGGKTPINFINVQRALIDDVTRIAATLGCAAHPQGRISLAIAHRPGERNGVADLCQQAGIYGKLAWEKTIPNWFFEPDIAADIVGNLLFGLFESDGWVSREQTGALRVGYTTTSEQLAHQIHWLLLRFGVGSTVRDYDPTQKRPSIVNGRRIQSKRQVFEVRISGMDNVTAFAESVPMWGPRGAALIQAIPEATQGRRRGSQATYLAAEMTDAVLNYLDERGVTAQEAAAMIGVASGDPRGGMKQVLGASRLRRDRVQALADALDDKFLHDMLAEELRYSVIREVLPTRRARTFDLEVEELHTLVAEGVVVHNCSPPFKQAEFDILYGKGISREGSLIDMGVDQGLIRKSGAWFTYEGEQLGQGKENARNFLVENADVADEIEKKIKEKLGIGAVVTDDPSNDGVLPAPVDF
# [5] = target: T2, Replicative DNA helicase DnaB (Mycobacterium tuberculosis, UniProt P9WMR3); test: DnaB intein splicing inhibitors, dose response, biochemical, cell-free fluorescence (AID 449749); type: functional
# T2 sequence (P9WMR3 whole entry): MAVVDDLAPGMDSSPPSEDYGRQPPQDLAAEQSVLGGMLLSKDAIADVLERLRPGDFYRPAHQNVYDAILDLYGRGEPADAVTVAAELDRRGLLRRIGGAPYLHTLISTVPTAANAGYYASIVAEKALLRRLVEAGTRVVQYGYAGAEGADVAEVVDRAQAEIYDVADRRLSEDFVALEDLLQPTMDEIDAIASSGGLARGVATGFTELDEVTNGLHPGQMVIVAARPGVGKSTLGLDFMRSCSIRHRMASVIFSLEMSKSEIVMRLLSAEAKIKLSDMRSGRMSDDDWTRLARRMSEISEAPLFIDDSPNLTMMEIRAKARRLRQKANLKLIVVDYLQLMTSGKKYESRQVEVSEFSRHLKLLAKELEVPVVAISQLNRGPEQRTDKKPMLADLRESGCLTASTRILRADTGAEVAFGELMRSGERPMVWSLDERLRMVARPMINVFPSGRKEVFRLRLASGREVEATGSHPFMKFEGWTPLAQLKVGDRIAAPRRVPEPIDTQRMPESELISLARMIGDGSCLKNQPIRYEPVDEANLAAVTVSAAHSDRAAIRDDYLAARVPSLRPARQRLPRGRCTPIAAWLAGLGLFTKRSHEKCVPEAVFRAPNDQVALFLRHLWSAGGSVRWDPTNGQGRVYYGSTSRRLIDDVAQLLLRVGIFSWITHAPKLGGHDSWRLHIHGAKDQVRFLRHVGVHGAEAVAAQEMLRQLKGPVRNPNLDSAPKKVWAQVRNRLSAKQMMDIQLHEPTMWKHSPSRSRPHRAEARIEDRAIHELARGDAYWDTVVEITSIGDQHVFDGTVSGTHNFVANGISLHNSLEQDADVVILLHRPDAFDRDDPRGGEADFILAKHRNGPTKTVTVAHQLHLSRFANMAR
# [6] = target: Glucose-6-phosphate 1-dehydrogenase (Homo sapiens, UniProt P11413); test: human G6PD enzyme inhibitors, dose response, selectivity assay for P. falciparum G6PD inhibitor project, biochemical, fluorescence (AID 504792); type: functional
# Large T antigen = Large T antigen (Simian virus 40, UniProt P03070); type: functional, Betapolyomavirus macacae;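 note: Confirmatory-stage PubChem screen for compounds that inhibit SV40 T antigen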
# [7] = target: Induced myeloid leukemia cell differentiation protein Mcl-1 (Homo sapiens, UniProt Q07820); type: functional
# Vero = Vero cell cytotoxicity, cytotoxicity control for flavivirus capping enzyme inhibitors (AID 588742); type: functional; details: Chlorocebus sabaeus
# Genome polyprotein = Genome polyprotein (dengue virus type 2, UniProt P29990); test: Dengue-2 NS5 methyltransferase inhibitors, primary screen, biochemical, confirmation dose response (AID 588689); type: functional
# [8] = A549 cell cytotoxicity, dose response, cytotoxicity control, plate reader, cherry-pick, antagonist series (AID 743412); type: functional, cell-based
# [9] = HepG2 cell cytotoxicity, dose response, cytotoxicity control, plate reader, cherry-pick, antagonist series (AID 743416); type: functional, cell-based
# [10] = LGR2 antagonists, dose response, cell-based, HEK293, CRE-luciferase reporter, cherry pick, set 2 (AID 743343); type: functional;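 note: transfected cells were stimulated with diluted bursicon conditioned medium after compound addition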
# [11] = target: T3, Mannose-6-phosphate isomerase (Homo sapiens, UniProt P34949); test: human PMI inhibitors, high substrate, primary screen, biochemical, fluorescence intensity, high mannose 6-phosphate (AID 1220)
# T3 sequence (P34949 whole entry): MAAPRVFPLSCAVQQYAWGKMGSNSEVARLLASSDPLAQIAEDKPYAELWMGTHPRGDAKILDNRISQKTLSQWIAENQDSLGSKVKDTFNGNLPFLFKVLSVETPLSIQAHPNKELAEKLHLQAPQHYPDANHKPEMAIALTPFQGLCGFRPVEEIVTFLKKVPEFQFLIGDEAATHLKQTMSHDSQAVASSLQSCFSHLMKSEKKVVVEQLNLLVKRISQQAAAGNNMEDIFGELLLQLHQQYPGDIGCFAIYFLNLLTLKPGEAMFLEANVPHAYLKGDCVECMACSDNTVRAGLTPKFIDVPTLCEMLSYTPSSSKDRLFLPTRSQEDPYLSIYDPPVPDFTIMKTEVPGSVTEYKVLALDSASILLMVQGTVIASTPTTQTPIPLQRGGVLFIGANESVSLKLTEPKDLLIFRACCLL
# [12] = NIH-3T3 fibroblast cytotoxicity, dose response, cytotoxicity control, cell-based, fluorescence, Alamar Blue, secondary assay (AID 2327); type: functional;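 note: NIH-3T3 mouse fibroblasts cultured with fluconazole at 8 µg/mL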
# [13] = C. albicans growth with fluconazole, confirmation, fluorescence, retest (AID 2467); type: functional, cell-based
# [14] = target: T4, Apoptotic protease-activating factor 1 (Homo sapiens, UniProt O14727); type: functional
# T4 sequence (O14727 whole entry): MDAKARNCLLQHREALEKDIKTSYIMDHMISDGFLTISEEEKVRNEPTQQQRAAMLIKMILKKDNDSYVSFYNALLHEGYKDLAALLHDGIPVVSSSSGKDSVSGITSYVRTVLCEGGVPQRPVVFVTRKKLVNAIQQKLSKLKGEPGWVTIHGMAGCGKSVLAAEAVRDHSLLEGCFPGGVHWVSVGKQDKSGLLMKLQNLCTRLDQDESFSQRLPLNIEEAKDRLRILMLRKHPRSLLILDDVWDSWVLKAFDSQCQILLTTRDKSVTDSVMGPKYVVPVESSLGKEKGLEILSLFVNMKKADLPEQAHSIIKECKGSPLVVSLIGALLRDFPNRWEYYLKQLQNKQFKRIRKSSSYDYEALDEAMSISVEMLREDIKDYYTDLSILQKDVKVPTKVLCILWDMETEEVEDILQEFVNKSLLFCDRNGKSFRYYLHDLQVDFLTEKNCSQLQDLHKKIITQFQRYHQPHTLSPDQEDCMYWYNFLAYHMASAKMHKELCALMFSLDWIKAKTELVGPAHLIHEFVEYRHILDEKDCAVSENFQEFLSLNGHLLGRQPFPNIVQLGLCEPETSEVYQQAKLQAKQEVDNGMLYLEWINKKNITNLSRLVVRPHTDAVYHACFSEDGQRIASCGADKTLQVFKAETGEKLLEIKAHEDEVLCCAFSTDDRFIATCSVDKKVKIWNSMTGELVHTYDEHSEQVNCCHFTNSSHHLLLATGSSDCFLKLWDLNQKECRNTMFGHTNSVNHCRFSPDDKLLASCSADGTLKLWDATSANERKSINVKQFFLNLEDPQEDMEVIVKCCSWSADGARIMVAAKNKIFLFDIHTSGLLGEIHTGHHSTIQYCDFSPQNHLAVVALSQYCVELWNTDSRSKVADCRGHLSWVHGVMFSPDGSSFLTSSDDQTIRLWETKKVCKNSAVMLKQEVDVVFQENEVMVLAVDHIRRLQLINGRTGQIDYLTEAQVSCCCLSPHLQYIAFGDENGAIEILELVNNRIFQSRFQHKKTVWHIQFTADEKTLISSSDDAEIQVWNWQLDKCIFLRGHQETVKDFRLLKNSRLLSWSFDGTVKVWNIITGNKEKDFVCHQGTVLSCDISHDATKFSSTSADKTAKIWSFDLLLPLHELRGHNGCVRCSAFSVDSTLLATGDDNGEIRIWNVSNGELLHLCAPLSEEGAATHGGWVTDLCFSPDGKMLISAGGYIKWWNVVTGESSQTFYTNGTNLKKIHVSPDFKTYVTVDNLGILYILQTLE
# [15] = inhibitors of HIV Env-driven cell fusion, dose response, cherry-pick (AID 652057); type: functional, cell-based
# [16] = target: T5, Carboxy-terminal domain RNA polymerase II polypeptide A small phosphatase 1 (Homo sapiens, UniProt Q9GZU7); test: inhibitors of CTDSP1, concentration-response testing, biochemical assay, absorbance-based, actives from ultra-high-throughput screening (AID 540297); type: functional
# T5 sequence (Q9GZU7 whole entry): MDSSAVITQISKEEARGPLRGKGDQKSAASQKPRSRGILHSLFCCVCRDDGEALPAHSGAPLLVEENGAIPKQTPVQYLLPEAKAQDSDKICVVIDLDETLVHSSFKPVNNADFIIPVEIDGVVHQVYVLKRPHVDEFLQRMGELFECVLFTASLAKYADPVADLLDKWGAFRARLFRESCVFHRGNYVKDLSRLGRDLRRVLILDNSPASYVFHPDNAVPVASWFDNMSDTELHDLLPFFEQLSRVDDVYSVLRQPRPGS
# DNA dC->dU-editing enzyme APOBEC-3G, sequence (Q9HC16 whole entry): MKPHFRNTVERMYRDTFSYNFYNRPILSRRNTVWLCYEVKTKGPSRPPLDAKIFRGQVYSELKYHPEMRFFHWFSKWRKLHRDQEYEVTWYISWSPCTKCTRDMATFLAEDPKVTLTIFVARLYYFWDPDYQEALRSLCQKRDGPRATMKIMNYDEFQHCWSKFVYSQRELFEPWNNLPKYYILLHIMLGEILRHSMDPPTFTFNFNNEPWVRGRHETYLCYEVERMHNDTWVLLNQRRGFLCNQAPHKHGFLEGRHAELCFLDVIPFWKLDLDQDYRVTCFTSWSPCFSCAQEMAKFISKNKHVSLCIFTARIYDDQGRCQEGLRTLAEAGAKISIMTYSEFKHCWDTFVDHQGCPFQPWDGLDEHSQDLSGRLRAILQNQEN
# Genome polyprotein, sequence (P29990 2492-3391 limits assumed): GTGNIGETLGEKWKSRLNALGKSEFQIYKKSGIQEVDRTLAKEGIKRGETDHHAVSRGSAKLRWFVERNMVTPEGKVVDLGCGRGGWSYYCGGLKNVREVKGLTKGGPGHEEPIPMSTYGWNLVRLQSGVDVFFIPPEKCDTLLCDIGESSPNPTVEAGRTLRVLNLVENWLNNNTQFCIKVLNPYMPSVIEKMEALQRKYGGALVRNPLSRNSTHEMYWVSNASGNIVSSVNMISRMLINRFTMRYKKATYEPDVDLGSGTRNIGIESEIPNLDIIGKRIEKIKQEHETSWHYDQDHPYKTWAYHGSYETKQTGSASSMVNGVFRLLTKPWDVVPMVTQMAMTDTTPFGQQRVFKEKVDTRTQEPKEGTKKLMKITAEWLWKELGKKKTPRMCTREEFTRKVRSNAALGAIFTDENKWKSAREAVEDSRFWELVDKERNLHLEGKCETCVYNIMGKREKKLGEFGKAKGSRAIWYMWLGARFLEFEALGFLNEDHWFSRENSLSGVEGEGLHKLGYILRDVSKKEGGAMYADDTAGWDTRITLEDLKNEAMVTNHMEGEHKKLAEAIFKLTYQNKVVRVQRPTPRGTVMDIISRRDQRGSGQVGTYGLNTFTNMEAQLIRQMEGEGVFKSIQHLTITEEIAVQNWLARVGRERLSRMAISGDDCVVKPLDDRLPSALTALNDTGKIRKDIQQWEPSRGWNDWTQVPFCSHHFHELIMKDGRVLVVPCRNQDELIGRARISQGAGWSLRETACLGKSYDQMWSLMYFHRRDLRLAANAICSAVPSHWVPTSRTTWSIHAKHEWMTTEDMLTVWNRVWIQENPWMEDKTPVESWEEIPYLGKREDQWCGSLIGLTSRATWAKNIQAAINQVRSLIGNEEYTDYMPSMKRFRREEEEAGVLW
# DNA dC->dU-editing enzyme APOBEC-3A, sequence (P31941 whole entry): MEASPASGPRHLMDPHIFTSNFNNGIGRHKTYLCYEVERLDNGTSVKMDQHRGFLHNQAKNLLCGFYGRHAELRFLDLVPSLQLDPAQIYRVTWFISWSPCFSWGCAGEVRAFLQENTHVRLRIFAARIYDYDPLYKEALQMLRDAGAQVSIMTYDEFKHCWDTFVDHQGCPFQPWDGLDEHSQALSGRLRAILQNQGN
# Glucose-6-phosphate 1-dehydrogenase, sequence (P11413 whole entry): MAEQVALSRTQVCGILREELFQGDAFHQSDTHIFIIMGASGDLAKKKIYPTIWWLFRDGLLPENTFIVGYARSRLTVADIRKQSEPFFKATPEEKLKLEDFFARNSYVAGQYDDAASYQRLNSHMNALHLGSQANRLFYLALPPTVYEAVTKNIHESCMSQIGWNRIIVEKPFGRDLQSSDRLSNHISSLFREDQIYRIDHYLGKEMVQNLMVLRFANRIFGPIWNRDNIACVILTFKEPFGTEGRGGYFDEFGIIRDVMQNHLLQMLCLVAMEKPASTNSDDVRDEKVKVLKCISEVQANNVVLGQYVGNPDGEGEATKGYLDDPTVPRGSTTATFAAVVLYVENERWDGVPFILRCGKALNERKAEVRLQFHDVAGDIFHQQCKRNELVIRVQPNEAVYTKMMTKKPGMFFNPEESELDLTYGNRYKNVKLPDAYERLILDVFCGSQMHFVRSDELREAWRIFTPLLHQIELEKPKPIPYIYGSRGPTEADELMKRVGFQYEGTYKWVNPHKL
# Induced myeloid leukemia cell differentiation protein Mcl-1, sequence (Q07820 whole entry): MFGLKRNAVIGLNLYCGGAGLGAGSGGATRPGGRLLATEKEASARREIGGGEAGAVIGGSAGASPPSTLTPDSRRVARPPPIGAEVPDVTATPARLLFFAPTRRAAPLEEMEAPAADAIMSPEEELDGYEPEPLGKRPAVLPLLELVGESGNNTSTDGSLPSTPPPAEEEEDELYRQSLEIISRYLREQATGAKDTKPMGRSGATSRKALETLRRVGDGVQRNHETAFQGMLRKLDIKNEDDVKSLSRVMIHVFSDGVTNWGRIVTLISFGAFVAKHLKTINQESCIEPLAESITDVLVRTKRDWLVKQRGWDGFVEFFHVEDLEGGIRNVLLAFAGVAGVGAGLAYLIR
# Large T antigen, sequence (P03070 whole entry): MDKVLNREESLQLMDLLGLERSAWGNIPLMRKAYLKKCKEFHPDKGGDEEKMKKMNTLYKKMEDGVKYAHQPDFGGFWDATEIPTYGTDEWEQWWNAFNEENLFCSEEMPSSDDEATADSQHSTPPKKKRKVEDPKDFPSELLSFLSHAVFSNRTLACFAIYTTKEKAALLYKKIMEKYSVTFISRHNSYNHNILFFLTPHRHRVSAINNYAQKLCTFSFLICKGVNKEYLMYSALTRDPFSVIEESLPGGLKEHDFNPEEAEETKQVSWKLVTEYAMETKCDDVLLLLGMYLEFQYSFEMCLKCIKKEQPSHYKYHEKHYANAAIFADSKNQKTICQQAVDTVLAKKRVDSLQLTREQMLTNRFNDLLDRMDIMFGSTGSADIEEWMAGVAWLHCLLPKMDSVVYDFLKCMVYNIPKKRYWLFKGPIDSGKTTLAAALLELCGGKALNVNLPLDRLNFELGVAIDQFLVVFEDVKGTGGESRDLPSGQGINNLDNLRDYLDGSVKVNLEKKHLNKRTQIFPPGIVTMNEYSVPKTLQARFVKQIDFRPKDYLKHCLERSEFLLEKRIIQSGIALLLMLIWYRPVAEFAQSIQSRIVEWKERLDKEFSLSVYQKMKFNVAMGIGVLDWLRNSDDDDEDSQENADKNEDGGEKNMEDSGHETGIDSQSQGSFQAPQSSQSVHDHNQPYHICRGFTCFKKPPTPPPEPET
smiles,measurement,setting,value
O=C1C=C(O)CC(c2ccco2)C1 (stereo not drawn),IC50,[1],37.5 µM (active)
same,IC50,[2],14 µM (active)
CCOc1ccc(C(=O)C2=C(O)C(=O)N(c3ccccn3)C2c2ccc(F)cc2)c(C)c1 (stereo not drawn),IC50,Major prion protein,13 µM (inactive)
same,IC50,cells,> 138 µM (inactive)
c1ccc2c(c1)OCC(CNc1[nH]cnc3ncnc1-3)O2 (stereo not drawn),AC50,[3],7.15 µM (active)
same,AC50,[4],2.64 µM (active)
Sc1nc(Cc2ccc(Cl)cc2)nc2ccccc12,IC50,Major prion protein,7.46 µM (active)
same,IC50,cells,> 138 µM (inactive)
O=C(CSc1n[nH]c(-c2ccncc2)n1)Nc1ccc(Cl)c(Cl)c1,IC50,[1],9.18 µM (active)
same,IC50,[2],8.81 µM (active)
Nc1cc(N)c(OCC(F)(F)F)cc1OCC(F)(F)F,EC50,Protein RecA,4.82 µM (active)
same,AC50,[5],7.43 µM (active)
same,IC50,[6],32.7 µM (inactive)
CC(C)c1nc(SCC(=O)Nc2nc3c(s2)CCCC3)c2ccccc2n1,IC50,Major prion protein,5.97 µM (active)
same,IC50,cells,> 138 µM (inactive)
CCCCOC(=O)Nc1ccc(N(C)C)cc1,IC50,Large T antigen,5.43 µM (active)
same,IC50,[7],0.473 µM (not active)
CC(=O)Nc1nnc(SCC(=O)NCC2CCCO2)s1 (stereo not drawn),IC50,[1],22.5 µM (active)
same,IC50,[2],38.6 µM (active)
Cc1ccc(S(=O)(=O)N2[C@@H](c3cccc(Cl)c3)C(C(=O)O)=CC[C@H]2c2ccc(Cl)c(Cl)c2)cc1,CC50,Vero,> 40 µM (active)
same,IC50,Genome polyprotein,57.9 µM (active)
O=C(COc1ccccc1F)OCC(=O)c1ccc([N+](=O)[O-])cc1,IC50,[6],> 80 µM (inactive)
O=C(O)C1=CC[C@@H](c2ccc(Cl)cc2)N(S(=O)(=O)c2ccc(Cl)cc2)[C@H]1c1ccc(Br)cc1,CC50,Vero,> 40 µM (active)
same,IC50,Genome polyprotein,36.5 µM (active)
COc1ccc(C(=O)CC(Sc2ccccc2N)c2ccc(OC)cc2)cc1 (stereo not drawn),AC50,[8],48.4 µM (active)
same,AC50,[9],> 52 µM (inactive)
same,AC50,[10],28.7 µM (active)
O=[N+]([O-])c1ccc(N/N=C/c2ccc(O)c(O)c2O)c(S(=O)(=O)N2CCOCC2)c1,IC50,[11],> 50 µM (not active)
same,EC50,[12],24.9 µM (active)
same,IC50,[7],2.98 µM (active)
same,IC50,[6],55.6 µM (inactive)
same,EC50,[13],> 38 µM (not active)
same,IC50,Genome polyprotein,4.6 µM (active)
same,IC50,[14],21.4 µM (active)
COc1ccc(NC(=O)Nc2ccc3c(c2)C(=O)N([C@H](C)CO)C[C@H](C)[C@H](CN(C)CC2CC2)OCCCC[C@H](C)O3)cc1,AC50,[3],26.5 µM (active)
same,AC50,[15],25.9 µM (active)
same,AC50,[4],23.5 µM (active)
C[C@H](CO)N1C[C@H](C)[C@H](CN(C)Cc2cccnc2)OCc2ccccc2-c2c(n(C)c3ccccc23)C1=O,AC50,[3],1.21 µM (active)
same,AC50,[15],15.6 µM (active)
same,AC50,[4],0.805 µM (active)
CC[N+](CC)(CC)CCOc1ccc(/C=C/c2ccccc2)cc1 [STILONIUM IODIDE],IC50,[16],20.2 µM (active)
same,IC50,[1],2.57 µM (active)
same,IC50,[2],2.33 µM (active)
